One test relates to C57BL/6 mice. The test is described as follows: Combined Dex/CRH test (neuroendocrine analysis, plasma CORT). The test is classed as in vivo. The settings on record: 20 mg/kg i.p.; FIG. 2E. On the procedure: Briefly, a reference blood sample was collected by an incision in the ventral tail vessel at 1500, three days prior to the actual test (‘untreated’ value). […] The injected volume was 0.3 ml for each injection. At 1500, a second blood sample was drawn from the tail vessel (‘after Dex’ value), immediately followed by an i.p. injection of CRH (0.15 mg/kg). Thirty minutes later, the mice were sacrificed and trunk blood was collected (‘after CRH’ value).

In the next test the test system is N2a neuroblastoma cells. The test is described as follows: N2a cellular assay (neurite outgrowth). The class given is cell-based. On the procedure: At day one N2a cells were plated into 24-well plates with cover slips (pretreated with polylysine) at a density of 35,000 cells/well and cultured with DMEM (incl. FCS 10% and Pen/Strep 1%) for 24 h. Next, cells were transfected with 80 ng expression plasmids encoding Venus as well as 720 ng pRK5 (mock transfection) in a total volume of 500 μl starvation media containing different concentrations of compounds or DMSO for 36 h (media without FCS; induction of neurite outgrowth). Therefore media was removed and replaced by 400 μl DMEM (empty). Next an equivalent volume of plasmids were given to 50 μl OPTIMEM and incubated for 5 min at RT. Additionally 1.5 μl Lipofectamine 2000 was separately dissolved in 50 μl OPTIMEM. After 5 min both solutions (plasmids and Lipofactamine 2000 containing media) were combined and incubated again for another 20 min. After that 100 μl of this mixture was given to 400 μl media per well. (See also protocol of the provider—Life Technologies).
On the next day cells were washed with PBS and incubated for 30 min with 300 μl PFA (4%) and sucrose (5%) to fix cells. After fixation cells were washed three times, mounted onto microscope slides using 4 μl Vectashield (mounting media) and analyzed by fluorescence microscopy. Each bar represents the mean of the neurite length of 30-50 cells after the indicated treatment (FIGS. 1-2).

A further test relates to C57Bl/6N mice. The experiment in a line: Forced swim test (FST). The class given is in vivo. Particulars: FIG. 2D. How it is done: For the forced swim test (FST), male C57Bl/6N mice at the age of 12 weeks were single housed and acclimated to the room for 2 weeks before the experiment. […] The next morning, mice were subjected to a FST to assess stress-coping behavior. Each mouse was put into a 2 l glass beaker for 6 min and analyzed using an automated video-tracking system (Anymaze 4.20, Stoelting, Ill., USA). Time spent immobile (floating) and time spent struggling was scored by an experienced observer, blind to treatment or condition of the animals.

The structures appear in SMILES notation. Entries after “also recorded” stand apart in the source; their conditions may differ.

For the compound `COc1ccc(CC[C@@H](OC(=O)[C@@H]2CCCCN2C(=O)[C@H](c2cc(OC)c(OC)c(OC)c2)C2CCCCC2)c2cccc(OCCN3CCOCC3)c2)cc1OC` [Compound A18], in the test on C57BL/6 mice, the “regulation of stress hormone secretion” value is recorded as “enhances the regulation of stress hormone secretion”. The “effect of high concentrations on neuronal differentiation” value in the test with N2a neuroblastoma cells (FIG. 1A, 1D) was “do not lead to reduction of the neuronal differentiation”. Further, the “enhancement of neurite outgrowth of N2a cells” value in the test on N2a neuroblastoma cells (compared to unselective FKBP ligand FK506, FIG. 1) is reported as “stronger enhancement of neurite outgrowth; also recorded: promote neurite outgrowth in N2a cells more potently compared to FK506”. In the test with C57Bl/6N mice (20.0 mg/kg), the “floating time in forced swim test” value is reported as “reduced floating time” and the “struggling time in forced swim test” value is reported as “enhanced struggling time”. In the test on C57Bl/6N mice (single injection 20.0 mg/kg, 16 hours prior to testing), the “stress-coping behavior in the Forced Swim Test” value is reported as “elicited a more active stress-coping behavior”.

The values above are taken from US9845292B2 (Max-Planck-Gesellschaft zur Förderung der Wissenschaften …, priority 2013, dated 2017).
